Patent publication US7008950B1, “Benzofurans as suppressors of neurodegeneration” (Takeda Chemical Industries, Ltd., priority 1997, dated 2006)

test system: human neuroblastoma SK—N—SH cells; experiment: Cell protective activity against β-amyloid 25-35-induced neurotoxicity (Alamar Blue cell viability); type: cell-based; settings: test compound 1 μM with β-amyloid 25-35 10 μM; rhIFN-γ-pretreated SK—N—SH cells; viability by Alamar Blue after 3 days; [(A−B)/(C−B)]×100
From the text: Evaluation of cell protective activity against β-amyloid neurotoxicity in human neuroblastoma SK—N—SH cells.
• Human neuroblastoma SK—N—SH cells: obtained from American Type Tissue Culture Collection (ATCC). DMEM/F-12 medium: obtained from Nikken Biological Medicine Laboratory Co. • Ca^++ and Mg^++ free phosphate-buffered saline (PBS(−)): obtained Nikken Biological Medicine Laboratory Co. • N2 supplement™, and EDTA solution: obtained from Gibco BRL Co. • Fetal calf serum, and mixture of penicillin (5000 U/mL) and streptomycin (5 mg/mL): obtained from Bio Whittaker Co. • Recombinant human interferon gamma (rhIFN-γ): obtained from Wako Pure Chemical Co. • Alamar Blue™ reagent: obtained from AccuMed International, Inc. • Culture flasks: manufactured by Falcon Co. Collagen-coated, 96-well multi-plate: manufactured by Iwaki Glass Co. • β-amyloid 25-35: obtained from Bachem AG. • Other reagents: commercially-available special-grade chemicals. b) Test Method (1) Cultivation of SK—N—SH cells
SK—N—SH cells were sub-cultured in DMEM/F12 medium containing 5% FCS, 0.5% N2 supplement™, 1% of mixture of penicillin (5000 U/mL) and streptomycin (5 mg/mL), under 10 t CO2 and 90% air, using CO2 incubator. At sub-confluent condition, cells were harvested from culture flask with PBS(−) containing 2.5 mM EDTA, and plated at a density of 1.0×10^4 cells/100 μl of culture medium/well in collagen-coated 96-well multi-plate. The next day, 80 μl of culture medium was substituted with DMEM/F12 medium (containing neither FCS nor N2 supplement) containing 1.25 ng/mL of rhIFN-γ, and after 24 hr cultivation cells were used for cell toxicity assay mentioned below.
(2) Measurement of cell protective activity of test compounds against β-amyloid 25-35-induced neurotoxicity
After pretreatment of SK—N—SH cells with rhIFN-γ in collagen-coated 96 well multi-plate, cell toxicity assay was started by addition of β-amyloid 25-35 and test compound. Briefly, 80 μl of culture medium was removed, and 40 μl of β-amyloid 25-35 and 40 μl of test compound were added to cultures at the same time. The final concentrations of β-amyloid 25-35 and test compounds were 10 μM and 1 μM, respectively.
The test compound was dissolved at 10 mM in dimethylsulfoxide (DMSO) and diluted in DMEM/F12 medium. β-amyloid 25-35 was dissolved at 5 mM in sterile pure water, and stored at −80° C. Immediately before use, the stock solution β-amyloid 25-35 was diluted in DMEM/F12 medium and sonicated.
(3) Evaluation of cell protective activity of test compound
Cell viability was assessed by the reduction of Alamar Blue™ reagents, 3 days after starting of the cell toxicity assay. Briefly, 20 μl of culture medium was substituted with 20 μl of Alamar Blue™ reagents and incubated 4 hours. Absorbances were determined at wavelengths of 570 nm and 600 nm using a plate reader (MTP-32 Micro-plate Reader, manufactured by Corona Co.). Amount of reduced Alamar Blue reagents was determined by subtracting absorbance600 from absorbance570. The cell protective activity of the test compound was estimated according to the following equation: • Cell protective activity of compound [(A−B)/(C−B)]×100 (%) 20 where; • A: cell viability of the group treated with both the test compound and β-amyloid • B: cell viability of the group treated with β-amyloid only • C: cell viability of the control group Results
Cell viability of the group treated with both the test compound and β-amyloid was compared with that 30 group treated with β-amyloid only using Dunnett's test.
Cell viability of each group was determined using at least 4 culture well.

Compared with `Cc1c(C)c2c(c(C)c1OCc1ccccc1)CC(C)(CN1CCN(c3ccccc3)CC1)O2` (stereo not shown) [Example 3, 5-Benzyloxy-2,4,6,7-tetramethyl-2-(4-phenyl-1-piperazinyl)methyl-2,3-dihydrobenzofuran], `Cc1c(C)c2c(c(C)c1OCc1ccccc1)C(c1ccc(N(C)C)cc1)C(C)(C)O2` (stereo not shown) [Example 2, 5-Benzyloxy-3-[4-(dimethylamino)phenyl]-2,2,4,6,7-pentamethyl-2,3-dihydrobenzofuran] is lower in “Cell Protecting Activity (%)” value: 39.4% for the first, 27.9% for the second.

Compared with `Cc1c(C)c2c(c(C)c1OCCc1ccccc1)C(c1ccc(C(C)C)cc1)C(C)(C)O2` (stereo not shown) [Example 25, 3-(4-Isopropylphenyl)-2,2,4,6,7-pentamethyl-5-(2-phenylethyl)oxy-2,3-dihydrobenzofuran], `Cc1c(C)c2c(c(C)c1OCc1ccccc1)C(c1ccc(C(C)C)cc1)C(C)(C)O2` (stereo not shown) [Example 1, 5-Benzyloxy-3-(4-isopropylphenyl)-2,2,4,6,7-pentamethyl-2,3-dihydrobenzofuran] is lower in “Cell Protecting Activity (%)” value: 47.0% for the first, 30.7% for the second.

First: COc1ccc(COc2c(C)c(C)c3c(c2C)C(c2ccc(N4CCOCC4)cc2)C(C)(C)O3)cc1 (stereo not shown) [Example 7, 5-(4-Methoxybenzyloxy)-3-[4-(4-morpholinyl)phenyl]-2,2,4,6,7-pentamethyl-2,3-dihydrobenzofuran]
Second: Cc1c(C)c2c(c(C)c1OCC=Cc1ccccc1)C(c1ccc(C(C)C)cc1)C(C)(C)O2 (stereo not shown) [Example 12, 3-(4-Isopropylphenyl)-2,2,4,6,7-pentamethyl-5-(3-phenyl-2-propen-1-yloxy)-2,3-dihydrobenzofuran]
The “Cell Protecting Activity (%)” value of the first is lower: 27.3% for the first, 44.8% for the second.

With `Cc1c(C)c2c(c(C)c1OCCC(c1ccccc1)c1ccccc1)C(c1ccc(C(C)C)cc1)C(C)(C)O2` (stereo not shown) [Example 14, 5-(3,3-Diphenylpropyloxy)-3-(4-isopropylphenyl)-2,2,4,6,7-pentamethyl-2,3-dihydrobenzofuran] the “Cell Protecting Activity (%)” value was 44.2%.
